Experimental data taken from patent publication US20220064167A1, “IMIDAZO-PYRAZOLE CARBOXAMIDE DERIVATIVES AS ANTICANCER AGENTS AND THE SYNTHESIS THEREOF” (AVIDIN KFT., priority 2018, published 2022).
pIC50: −log10 of the molar value.

Tests used:
[1] = tested on: human breast adenocarcinoma cell line, MCF-7; test: resazurin viability assay, 72 h (Table 1); assay type: cell-based; details: MCF7, 72h incubation, 156 nM-100 μM
From the text: (§1) In our experiments three different cell lines were used. Cells were purchased from the American Type Culture Collection (ATCC, Manassas, Va., USA). The human breast adenocarcinoma cell line, MCF-7 cells were maintained in Dulbecco's Modified Eagle Medium/Nutrient Mixture F-12 (DMEM/F12) 10% fetal calf serum (FCS, Gibco) and mouse mammary carcinoma 4T1 and human promyelocytic leukemia, HL-60 cells were maintained in Roswell Park Memorial Institute 1640 medium (RPMI-1640) 10% FCS. Media were supplemented with 2 mM GlutaMAX, and 100 U/mL penicillin, 100 μg/mL streptomycin (Life Technologies, Carlsbad, Calif., USA). Cell cultures were maintained at 37° C. in a humidified incubator in an atmosphere of 5% CO2 (Sanyo, Japan).
(§2) For viability assays cells were seeded in 96 well plates (MCF7 and 4T1: 6000, HL60: 120.000 cells/well) and incubated overnight. Compounds were dissolved in dimethyl sulfoxide (DMSO). Cells were treated with an increasing concentration of compounds having the general formula (I.) (156 nM-100 μM). Cell viability was determined after 72h incubation. Resazurin reagent (Sigma-Aldrich) was dissolved in PBS (pH 7.4) at 0.15 mg/ml concentration, sterile filtered (0.22 μm, Merck Millipore) and aliquoted at −20° C. Resazurin reagent (Sigma-Aldrich) was added at a final concentration of 25 μg/ml. After 2 hours incubation at 37° C. 5% CO2 fluorescence (530 nm excitation/580 nm emission) was recorded on a multimode microplate reader (Cytofluor4000, PerSeptive Biosytems). Viability was calculated with relation to untreated control cells and blank wells containing media without cells. IC50 values (50% inhibiting concentration) were calculated by GraphPad Prism® 5 (La Jolla, Calif., USA).

[2] = tested on: human promyelocytic leukemia, HL-60 cells; test: resazurin viability assay, 72 h (Table 1); assay type: cell-based; details: 72h incubation, 156 nM-100 μM
From the text: as §1, §2

[3] = tested on: mouse mammary carcinoma 4T1; test: resazurin viability assay, 72 h (Table 1); assay type: cell-based; details: 72h incubation, 156 nM-100 μM
From the text: as §1, §2

HL-60 cells = test: resazurin viability assay, Example 103 (FIG. 1); assay type: cell-based; details: Homo sapiens, 72 h incubation, 20.000 cells/well, read-out: half-inhibitory concentration (IC50) on viability of HL-60 cells
Method: The human primary fibroblasts (6000 cells/well) and Hl60 cells (20.000 cells/well) were seeded into 96-well plates (Corning Life Sciences) in media. Fibroblasts were cultured overnight before treatment. Effects of compounds described in Example 22, 60 and 83 were examined in concentrations of 1 μM, 250 nM, 62.5 nM, 15.6 nM, 3.9 nM and 0.9 nM in 100 μl after 72 h incubation. Resazurin reagent was prepared and used as described in Example 1.
(§3) Viability was calculated with relation to untreated control cells and blank wells containing media without cells. IC50 values (50% inhibiting concentration) were calculated by GraphPad Prism® 5.

[4] = tested on: human primary fibroblasts; test: resazurin viability assay on primary fibroblasts, Example 103 (FIG. 1); assay type: cell-based; details: 72 h incubation, applied concentration range 1.6 nM-5 μM
From the text: To obtain primary human fibroblasts healthy volunteers (age 18-60 years) were enrolled into the study. The punch biopsies were taken from healthy subjects from the breast area undergoing plastic surgery. Primary fibroblasts were obtained from the skin by enzymatic digestion according to a standard protocol. Skin specimens were first washed in Salsol A solution (Human Rt, Gödöllö, Hungary) supplemented with 2% antibiotic/antimycotic solution (Sigma-Aldrich). Skin samples were then cut into narrow strips and incubated in Dispase solution (Roche Diagnostics, Mannheim, Germany) overnight at 4° C. The epidermis was subsequently separated from the dermis. Fibroblasts were obtained by incubating the dermis in Digestion Mix solution (Collagenase, Hyaluronidase and Deoxyribonuclease) for 2h at 37° C. Cell suspensions were filtered through a 100 μm nylon mesh (BD Falcon, San Jose, Calif., USA) and cells were pelleted by centrifugation. Fibroblasts were grown in low glucose DMEM medium containing 5% FBS, 1% antibiotic/antimycotic (PAA, Pasching, Austria) and 1% L-glutamine solution (PAA). Fibroblasts were cultured at 37° C. and 5% CO2 in humidified conditions. Depending on the cell growth, the medium was changed every 2-4 days and cells were passaged at 80% of confluence.
The human primary fibroblasts (6000 cells/well) and Hl60 cells (20.000 cells/well) were seeded into 96-well plates (Corning Life Sciences) in media. Fibroblasts were cultured overnight before treatment. […] Resazurin reagent was prepared and used as described in Example 1.
as §3

A375 (human melanoma) = test: viability assay (Table 2); assay type: cell-based; details: A-375
Method: as §2
(§4) GBM2 (human glioblastoma), HeLa (human cervical carcinoma), MIA PaCa-2 (human pancreas carcinoma) and U87MG (human glioblastoma) cells were maintained in Dulbecco's Modified Eagle Medium (DMEM) 10% fetal calf serum (FCS, Gibco). A375 (human melanoma), A549 (human lung adenocarcinoma) and HEP3B (human hepatoma) cells were maintained in Dulbecco's Modified Eagle Medium/Nutrient Mixture F-12 (DMEM/F12) 10% FCS.
(§5) Media were supplemented with 2 mM GlutaMAX, and 100 U/mL penicillin, 100 μg/mL streptomycin (Life Technologies, Carlsbad, Calif., USA). Cell cultures were maintained at 37° C. in a humidified incubator in an atmosphere of 5% CO2 (Sanyo, Japan).
(§6) Viability assays were performed as described in Example 102.

[5] = tested on: GBM2 (human glioblastoma); test: viability assay (Table 2); assay type: cell-based
Method: as §2, §4, §5, §6

HT168 (human melanoma) = test: viability assay (Table 2); assay type: cell-based
Method: as §2
HT168 (human melanoma), HT199 (human melanoma), HT29 (human colorectal adenocarcinoma), MOLT4 (human leukemia) and U937 (human lymphoma) cells were maintained in Roswell Park Memorial Institute 1640 medium (RPMI-1640) 10% FCS. SKOV-3 cells were maintained in Dulbecco's Modified Eagle Medium/McCoy's medium (DMEM/McCoy) 10% FCS.
as §5, §6

pIC50 [1] | pIC50 [2] | pIC50 [3] | pIC50 (HL-60 cells) | pIC50 (A375 (human melanoma)) | pIC50 [5] | pIC50 (HT168 (human melanoma)) | melting point | SMILES | decrease in viability of human primary fibroblasts [4]
5.83 | 5.91 | 5.73 | 6.03 | 5.70 | 5.30 | 5.52 | 155 to 156 °C | CC(C)(C)CC(C)(C)Nc1c(C(C)(C)C)[nH]c2c(C(N)=O)cnn12 [Example 22, 2-(Tert-butyl)-3-((2,4,4-trimethylpentan-2-yl)amino)-1H-imidazo[1,2-b]pyrazole-7-carbox-amide] | Significant decrease in viability was not apparent
< 4.30 | 4.94 | 4.45 |  |  |  |  | 180 °C | CC(C)(C)CC(C)(C)Nc1c(C(C)(C)C)[nH]c2c(C(=O)Nc3cccc(C(F)(F)F)c3)cnn12 [Example 46, 2-(Tert-butyl)-N-(3-(trifluoromethyl)phenyl)-3-((2,4,4-trimethylpentan-2-yl)amino)-1H-imidazo[1,2-b]pyrazole-7-carboxamide] | 
4.54 | < 4.30 | < 4.30 |  |  |  |  | 155 to 156 °C | CC(C)(C)CC(C)(C)Nc1c(C(C)(C)C)[nH]c2c(C(=O)Nc3ccc(C(F)(F)F)cc3)cnn12 [Example 47, 2-(Tert-butyl)-N-(4-(trifluoromethyl)phenyl)-3-((2,4,4-trimethylpentan-2-yl)amino)-1H-imidazo[1,2-b]pyrazole-7-carboxamide] | 
< 4.30 | 5.69 | < 4.30 |  |  |  |  | 153 to 154 °C | CC(C)(C)CC(C)(C)Nc1c(C(C)(C)C)[nH]c2c(C(=O)Nc3ccccc3F)cnn12 [Example 48, 2-(Tert-butyl)-N-(2-fluorophenyl)-3-((2,4,4-trimethylpentan-2-yl)amino)-1H-imidazo[1,2-b]pyrazole-7-carboxamide] | 
4.76 | 5.35 | 4.63 |  |  |  |  | 159 °C | CC(C)(C)CC(C)(C)Nc1c(C(C)(C)C)[nH]c2c(C(=O)Nc3cccc(F)c3)cnn12 [Example 49, 2-(Tert-butyl)-N-(3-fluorophenyl)-3-((2,4,4-trimethylpentan-2-yl)amino)-1H-imidazo[1,2-b]pyrazole-7-carboxamide] | 
5.63 | 6.74 | 5.13 |  |  |  |  | 188 °C | CC(C)(C)CC(C)(C)Nc1c(C(C)(C)C)[nH]c2c(C(=O)Nc3ccc(F)cc3)cnn12 [Example 50, 2-(Tert-butyl)-N-(4-fluorophenyl)-3-((2,4,4-trimethylpentan-2-yl)amino)-1H-imidazo[1,2-b]pyrazole-7-carboxamide] | 
< 4.30 | 4.71 | < 4.30 |  |  |  |  | 153 to 154 °C | CC(C)(C)CC(C)(C)Nc1c(C(C)(C)C)[nH]c2c(C(=O)Nc3ccc(Br)cc3)cnn12 [Example 52, N-(4-Bromophenyl)-2-(tert-butyl)-3-((2,4,4-trimethylpentan-2-yl)amino)-1H-imidazo[1,2-b]pyrazole-7-carboxamide] | 
5.00 | 5.12 | 4.57 |  |  |  |  | 199 °C | CC(C)(C)CC(C)(C)Nc1c(C(C)(C)C)[nH]c2c(C(=O)Nc3ccc([N+](=O)[O-])cc3)cnn12 [Example 53, 2-(Tert-butyl)-N-(4-nitrophenyl)-3-((2,4,4-trimethylpentan-2-yl)amino)-1H-imidazo[1,2-b]pyrazole-7-carboxamide] | 
5.01 | 5.82 | < 4.30 |  |  |  |  | 199 °C | CC(C)(C)CC(C)(C)Nc1c(C(C)(C)C)[nH]c2c(C(=O)Nc3ccc(C#N)cc3)cnn12 [Example 54, 2-(Tert-butyl)-N-(4-cyanophenyl)-3-((2,4,4-trimethylpentan-2-yl)amino)-1H-imidazo[1,2-b]pyrazole-7-carboxamide] | 
< 4.30 | 5.07 | < 4.30 |  |  |  |  | 127 to 128 °C | CCOC(=O)c1ccc(NC(=O)c2cnn3c(NC(C)(C)CC(C)(C)C)c(C(C)(C)C)[nH]c23)cc1 [Example 55, Ethyl 4-(2-(tert-butyl)-3-((2,4,4-trimethylpentan-2-yl)amino)-1H-imidazo[1,2-b]pyrazole-7-carbox-amido)benzoate] | 
4.66 | 5.41 | < 4.30 |  |  |  |  | 169 to 170 °C | CSc1ccc(NC(=O)c2cnn3c(NC(C)(C)CC(C)(C)C)c(C(C)(C)C)[nH]c23)cc1 [Example 56, 2-(Tert-butyl)-N-(4-(methylthio)phenyl)-3-((2,4,4-trimethylpentan-2-yl)amino)-1H-imidazo[1,2-b]pyrazole-7-carboxamide] | 
5.00 | 6.53 | 4.93 |  |  |  |  | 176 to 177 °C | CN(C)c1ccc(NC(=O)c2cnn3c(NC(C)(C)CC(C)(C)C)c(C(C)(C)C)[nH]c23)cc1 [Example 57, 2-(Tert-butyl)-N-(4-(dimethylamino)phenyl)-3-((2,4,4-trimethylpentan-2-yl)amino)-1H-imidazo[1,2-b]pyrazole-7-carboxamide] | 
< 4.30 | 6.20 | < 4.30 |  |  |  |  | 174 °C | CC(C)(C)CC(C)(C)Nc1c(C(C)(C)C)[nH]c2c(C(=O)Nc3ccc(F)cc3F)cnn12 [Example 58, 2-(Tert-butyl)-N-(2,4-difluorophenyl)-3-((2,4,4-trimethylpentan-2-yl)amino)-1H-imidazo[1,2-b]pyrazole-7-carboxamide] | 
4.99 | 5.62 | 4.72 |  |  |  |  | 162 to 164 °C | CC(C)(C)CC(C)(C)Nc1c(C(C)(C)C)[nH]c2c(C(=O)Nc3ccc(F)c(F)c3)cnn12 [Example 59, 2-(Tert-butyl)-N-(3,4-difluorophenyl)-3-((2,4,4-trimethylpentan-2-yl)amino)-1H-imidazo[1,2-b]pyrazole-7-carboxamide] | 
